{
  "source": "paper PMC2692856",
  "about": "“Emodin targets the β-hydroxyacyl-acyl carrier protein dehydratase from Helicobacter pylori: enzymatic inhibition assay with crystal structural and thermodynamic characterization” (BMC Microbiology, 2009)",
  "key": {"[1]": {"test_system": "H. pylori strains ATCC 43504", "design": "method as in PMID 18780820", "settings": "cited from earlier work"}, "[2]": {"molecular_target": "T1, HpFabZ (Helicobacter pylori, UniProt Q5G940)", "T1 sequence (Q5G940 entry or part of it)": "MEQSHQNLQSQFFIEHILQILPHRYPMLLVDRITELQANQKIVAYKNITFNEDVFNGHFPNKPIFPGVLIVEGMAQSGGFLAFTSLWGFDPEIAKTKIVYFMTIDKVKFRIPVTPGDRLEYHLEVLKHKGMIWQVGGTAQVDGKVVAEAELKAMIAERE", "assay": "HpFabZ enzymatic inhibition assay (spectrophotometric, substrate crotonoyl-CoA)", "format": "biochemical", "description": "The expression, purification and enzymatic inhibition assay of HpFabZ enzyme were performed according to the previously published approach with slight modification. The compounds dissolved in 1% DMSO (Dimethyl sulfoxide) were incubated with the enzyme for 2 hours before the assay started. The IC50 value of Emodin was estimated by fitting the inhibition data to a dose-dependent curve using a logistic derivative equation. The inhibition type of Emodin against HpFabZ was determined in the presence of varied inhibitor concentrations. After 2h-incubation, the reaction was started by the addition of crotonoyl-CoA. The Ki value was obtained from Lineweaver-Burk double-reciprocal plots and subsequent secondary plots.\nThe recombinant HpFabZ enzyme was prepared according to our previously published report. The spectrophotomeric enzyme inhibition assay approach was used for randomly screening HpFabZ inhibitor against our lab in-house natural product library. In addition, to optimize the screening efficiency and creditability, the pH profile of HpFabZ and the potential effects of DMSO on enzymatic activity were investigated [see Additional files 1, 2 and 3]. As shown in Additional file 2: Fig. S1, the pH optimum of HpFabZ was 8.0 and 1% DMSO for dissolving the tested compound had no obvious effect on the enzymatic activity (Additional file 3: Fig. S2.)"}, "[3]": {"molecular_target": "T1, HpFabZ", "assay": "SPR (Biacore 3000) binding assay of Emodin to immobilized HpFabZ", "settings": "25°C", "description": "The binding of Emodin to HpFabZ was analyzed by SPR technology based Biacore 3000 instrument (Biacore AB, Uppsala, Sweden). All the experiments were carried out using HBS-EP (10 mM HEPES pH 7.4, 150 mM NaCl, 3.4 mM EDTA and 0.005% surfactant P20) as running buffer with a constant flow rate of 30 μL/min at 25°C. HpFabZ protein, which was diluted in 10 mM sodium acetate buffer (pH 4.13) to a final concentration of 1.3 μM, was covalently immobilized on the hydrophilic carboxymethylated dextran matrix of the CM5 sensor chip (BIAcore) using standard primary amine coupling procedure. Emodin was dissolved in the running buffer with different concentrations ranging from 0.625 to 20 μM. All data were analyzed by BIAevaluation software, and the sensorgrams were processed by automatic correction for nonspecific bulk refractive index effects. The kinetic analyses of the Emodin/HpFabZ binding were performed based on the 1:1 Langmuir binding fit model according to the procedures described in the software manual.\nSPR technology based Biacore 3000 instrument was used to investigate the kinetic feature of Emodin binding to HpFabZ.\nThe 1:1 Langmuir binding model was used to fit the kinetic parameters regarding the Emodin/HpFabZ binding process, in which the association rate constant (ka) and dissociation rate constant (kd) were fitted simultaneously by rate Equation 1,(1) [drawing 1]\nWhere, R represents the response unit, C is the concentration of the Emodin, Rmax stands for the maximal response. The equilibrium dissociation constant (KD) was determined by Equation 2.(2) [drawing 2]"}, "[4]": {"molecular_target": "T1, HpFabZ", "assay": "ITC based assay of Emodin/HpFabZ binding", "settings": "25°C", "description": "ITC experiments were performed on a VP-ITC Microcalorimeter (Microcal, Northampton, MA, USA) at 25°C. HpFabZ was dialysed extensively against 20 mM Tris (pH 8.0), 500 mM NaCl and 1 mM EDTA at 4°C. Appropriate concentration of Emodin was prepared from a 50 mM stock in DMSO, and corresponding amount of DMSO (25%) was added to the protein solution to match the buffer composition. The reference power was set to 15 μCal/sec and the cell contents were stirred continuously at 300 rpm throughout the titrations. After an initial injection of Emodin (3 μL, not used for data fitting), 29 injections (6 μL each) were performed with a 3 min-delay between each injection, and then the heat changes were monitored. Blank titrations of Emodin into buffer were also performed to correct for the heats generated by dilution and mixing. The binding isotherm was fit by the single binding site model using a non-linear least squares method based on Origin (Microcal Software, Northampton, MA, USA).\nTo inspect the kinetic and thermodynamic characters regarding the inhibition of Emodin against HpFabZ enzyme, ITC technology based assay was performed. […] The ITC titration data in Table 2 has clearly established a 1:1 stoichiometry for HpFabZ-Emodin complex formation. Based on the obtained thermodynamic data (ΔH = -17.77 ± 1.11 kcal/mol, TΔS = -9.12 kcal/mol, ΔG = -8.65 kcal/mol), it was easily concluded that the enthalpy contributed favorably to the binding free energy in Emodin/HpFabZ interaction, indicating a significant enthalpy driven binding of Emodin to HpFabZ."}, "[5]": {"test_system": "H. pylori strain ATCC 43504", "assay": "Anti-H. pylori activity assay, MIC by standard agar dilution method", "format": "cell-based", "settings": "Helicobacter pylori, ATCC43504, 72 h, 3 days, 37°C, microaerobic", "description": "(§1) The bacterial growth inhibition activity for Emodin was evaluated by using Paper Discus Method. DMSO and ampicillin paper were used as negative and positive control respectively. The minimum inhibitory concentrations (MIC) values were determined by the standard agar dilution method using Columbia agar supplemented with 10% sheep blood containing two-fold serial dilutions of Emodin. The plates were inoculated with a bacterial suspension (10^8 cfu/ml) in Brain Heart Infusion broth with a multipoint inoculator. Compound-free Columbia agar media were used as controls. Inoculated plates were incubated at 37°C under microaerobic conditions (85% N2, 10% CO2 and 5% O2) and examined after 3 days.\n(§2) The inhibition activities of Emodin against H. pylori strains SS1 and ATCC 43504 were assayed according to the standard agar dilution method."}, "[6]": {"test_system": "H. pylori strain SS1", "assay": "Anti-H. pylori activity assay, MIC by standard agar dilution method", "format": "cell-based", "settings": "Helicobacter pylori, SS1, 72 h, 3 days, 37°C, microaerobic", "description": "as §1, §2"}, "[7]": {"test_system": "H. pylori strains SS1", "design": "method as in PMID 18565285", "settings": "cited from earlier work"}},
  "data": [
    {"smiles": "COc1cc(O)c2c(c1)O[C@H](c1ccc(O)cc1)CC2=O", "note": "[(S)-Sakuranetin]", "values": [
      {"measurement": "MIC, H. pylori strains ATCC 43504", "setting": "[1]", "value": 25, "unit": "µg/mL"}
    ]},
    {"smiles": "O=c1cc(-c2ccc(O)cc2)oc2cc(O)cc(O)c12", "note": "[Apigenin]", "values": [
      {"measurement": "MIC, H. pylori strains ATCC 43504", "setting": "[1]", "value": 25, "unit": "µg/mL"}
    ]},
    {"smiles": "Cc1cc(O)c2c(c1)C(=O)c1cc(O)cc(O)c1C2=O", "note": "[Emodin, 3-methyl-1,6,8-trihydroxyanthraquinone]", "values": [
      {"measurement": "IC50", "setting": "[2]; 2 h preincubation with enzyme, 1% DMSO", "value": "9.7 ± 1", "unit": "µM"},
      {"measurement": "Ki", "setting": "[2]; Lineweaver-Burk and secondary plots, substrate crotonoyl-CoA, read-out: Ki, HpFabZ enzyme inhibition", "value": "1.9 ± 0.3", "unit": "µM"},
      {"measurement": "Inhibition type", "setting": "[2]; versus substrate crotonoyl-CoA, double reciprocal plots", "value": "Competitive"},
      {"measurement": "Rmax, maximum analyte binding capacity", "setting": "[3]; 1:1 Langmuir fit", "value": "42.3 ± 1.51", "unit": "RU"},
      {"measurement": "kd, dissociation rate constant", "setting": "[3]; 1:1 Langmuir fit", "value": "0.193 ± 0.0061", "unit": "per s"},
      {"measurement": "Kd", "setting": "[3]; HpFabZ immobilized on CM5 chip, read-out: KD, equilibrium dissociation constant determined by SPR", "value": 4.59, "unit": "µM"},
      {"measurement": "TΔS", "setting": "[4]", "value": -9.12, "unit": "kcal/mol"},
      {"measurement": "ΔG", "setting": "[4]", "value": -8.65, "unit": "kcal/mol"},
      {"measurement": "ΔH", "setting": "[4]", "value": "-17.77 ± 1.11", "unit": "kcal/mol"},
      {"measurement": "Kd", "setting": "[4]; read-out: KD', equilibrium dissociation constant determined by ITC", "value": 0.45, "unit": "µM"},
      {"measurement": "N, stoichiometry of Emodin-HpFabZ complex", "setting": "[4]; single binding site model", "value": "1.07 ± 0.035"},
      {"measurement": "MIC", "setting": "[5]", "value": 10, "unit": "µg/mL"},
      {"measurement": "MIC", "setting": "[6]", "value": 5, "unit": "µg/mL"}
    ]},
    {"smiles": "O=C1C=CC(=O)c2c(O)cccc21", "note": "[Juglone]", "values": [
      {"measurement": "MIC, H. pylori strains SS1", "setting": "[7]", "value": 5, "unit": "µg/mL"}
    ]},
    {"smiles": "O=c1c(O)c(-c2ccc(O)c(O)c2)oc2cc(O)cc(O)c12", "note": "[Quercetin]", "values": [
      {"measurement": "MIC, H. pylori strains ATCC 43504", "setting": "[1]", "value": 100, "unit": "µg/mL"}
    ]}
  ]
}
